From patent US5843889A, “Glycopeptide antibiotic derivatives” (Eli Lilly and Company, priority 1997, dated 1998)
Values after ≈ are worked out from the molar mass of the structure shown.

Key:
Experiment in all cases: MIC, standard broth micro-dilution assay
Assay type in all cases: cell-based
[1] = test system: Entercoccus gallinarum 245
Procedure: (§1) The formula I compounds have in vitro and in vivo activity against Gram-positive pathogenic bacteria. The MIC's were determined using a standard broth micro-dilution assay.

[2] = test system: Entercoccus faecalis 2041
Procedure: as §1

Entercoccus faecalis 276 = test system: Entercoccus faecalis 276
Procedure: as §1

MIC [1] | MIC [2] | MIC (Entercoccus faecalis 276) | Structure (SMILES)
4 µg/mL (≈ 2.21 µM) | ≤ 0.06 µg/mL | ≤ 0.06 µg/mL | CNC(CC(C)C)C(=O)NC1C(=O)NC(CC(N)=O)C(=O)NC2C(=O)NC3C(=O)NC(C(=O)NC(C(=O)O)c4cc(O)cc(O)c4-c4cc3ccc4O)C(OC3CC(C)(N)C(O)C(C)O3)c3ccc(c(Cl)c3)Oc3cc2cc(c3OC2OC(CO)C(O)C(O)C2OC2CC(C)(NCc3ccc(OCCC4CCCCC4)cc3)C(O)C(C)O2)Oc2ccc(cc2Cl)C1O (stereo not drawn) [Compound 127, 4-[cyclohexylethoxy]benzyl]
0.25 µg/mL (≈ 0.144 µM) | 0.25 µg/mL (≈ 0.144 µM) | ≤ 0.06 µg/mL | CNC(CC(C)C)C(=O)NC1C(=O)NC(CC(N)=O)C(=O)NC2C(=O)NC3C(=O)NC(C(=O)NC(C(=O)O)c4cc(O)cc(O)c4-c4cc3ccc4O)C(OC3CC(C)(N)C(O)C(C)O3)c3ccc(c(Cl)c3)Oc3cc2cc(c3OC2OC(CO)C(O)C(O)C2OC2CC(C)(NCc3cnc4ccccc4c3)C(O)C(C)O2)Oc2ccc(cc2Cl)C1O (stereo not drawn) [Compound 28, 3-quinolylmethyl]
1 µg/mL (≈ 0.553 µM) | ≤ 0.06 µg/mL | ≤ 0.06 µg/mL | CNC(CC(C)C)C(=O)NC1C(=O)NC(CC(N)=O)C(=O)NC2C(=O)NC3C(=O)NC(C(=O)NC(C(=O)O)c4cc(O)cc(O)c4-c4cc3ccc4O)C(OC3CC(C)(N)C(O)C(C)O3)c3ccc(c(Cl)c3)Oc3cc2cc(c3OC2OC(CO)C(O)C(O)C2OC2CC(C)(NCc3ccc(OC(=O)C4CCCCC4)cc3)C(O)C(C)O2)Oc2ccc(cc2Cl)C1O (stereo not drawn) [Compound 157, 4-cyclohexanoyloxybenzyl]
16 µg/mL (≈ 8.81 µM) | ≤ 0.06 µg/mL | ≤ 0.06 µg/mL | CNC(CC(C)C)C(=O)NC1C(=O)NC(CC(N)=O)C(=O)NC2C(=O)NC3C(=O)NC(C(=O)NC(C(=O)O)c4cc(O)cc(O)c4-c4cc3ccc4O)C(OC3CC(C)(N)C(O)C(C)O3)c3ccc(c(Cl)c3)Oc3cc2cc(c3OC2OC(CO)C(O)C(O)C2OC2CC(C)(NCc3ccc(S(=O)(=O)N4CCCC4)cc3)C(O)C(C)O2)Oc2ccc(cc2Cl)C1O (stereo not drawn) [Compound 174, 4-[1-pyrrolidinosulfonyl]benzyl]
2 µg/mL (≈ 1.12 µM) | ≤ 0.06 µg/mL | 0.25 µg/mL (≈ 0.139 µM) | CNC(CC(C)C)C(=O)NC1C(=O)NC(CC(N)=O)C(=O)NC2C(=O)NC3C(=O)NC(C(=O)NC(C(=O)O)c4cc(O)cc(O)c4-c4cc3ccc4O)C(OC3CC(C)(N)C(O)C(C)O3)c3ccc(c(Cl)c3)Oc3cc2cc(c3OC2OC(CO)C(O)C(O)C2OC2CC(C)(NCc3ccc(-c4ccc(Cl)cc4)cc3)C(O)C(C)O2)Oc2ccc(cc2Cl)C1O (stereo not drawn) [Compound 229, 4-[4-chlorophenyl]benzyl-A82846B]
4 µg/mL (≈ 2.32 µM) | ≤ 0.06 µg/mL | 0.5 µg/mL (≈ 0.29 µM) | CNC(CC(C)C)C(=O)NC1C(=O)NC(CC(N)=O)C(=O)NC2C(=O)NC3C(=O)NC(C(=O)NC(C(=O)O)c4cc(O)cc(O)c4-c4cc3ccc4O)C(OC3CC(C)(N)C(O)C(C)O3)c3ccc(c(Cl)c3)Oc3cc2cc(c3OC2OC(CO)C(O)C(O)C2OC2CC(C)(NCC3=CCC4CC3C4(C)C)C(O)C(C)O2)Oc2ccc(cc2Cl)C1O (stereo not drawn) [Compound 170]
0.25 µg/mL (≈ 0.157 µM) | 0.25 µg/mL (≈ 0.157 µM) | 2 µg/mL (≈ 1.26 µM) | CNC(CC(C)C)C(=O)NC1C(=O)NC(CC(N)=O)C(=O)NC2C(=O)NC3C(=O)NC(C(=O)NC(C(=O)O)c4cc(O)cc(O)c4-c4cc3ccc4O)C(O)c3ccc(c(Cl)c3)Oc3cc2cc(c3OC2OC(CO)C(O)C(O)C2OC2CC(C)(NCc3cccc4ccccc34)C(O)C(C)O2)Oc2ccc(cc2Cl)C1O (stereo not drawn) [Compound 180, 1-napthylmethyl]
≤ 0.06 µg/mL | ≤ 0.06 µg/mL | ≤ 0.06 µg/mL | CNC(CC(C)C)C(=O)NC1C(=O)NC(CC(N)=O)C(=O)NC2C(=O)NC3C(=O)NC(C(=O)NC(C(=O)O)c4cc(O)cc(O)c4-c4cc3ccc4O)C(OC3CC(C)(N)C(O)C(C)O3)c3ccc(c(Cl)c3)Oc3cc2cc(c3OC2OC(CO)C(O)C(O)C2OC2CC(C)(NCc3cc4ccccc4s3)C(O)C(C)O2)Oc2ccc(cc2Cl)C1O (stereo not drawn) [Compound 19, 2-benzthienylmethyl]
0.5 µg/mL (≈ 0.28 µM) | ≤ 0.06 µg/mL | 1 µg/mL (≈ 0.559 µM) | CNC(CC(C)C)C(=O)NC1C(=O)NC(CC(N)=O)C(=O)NC2C(=O)NC3C(=O)NC(C(=O)NC(C(=O)O)c4cc(O)cc(O)c4-c4cc3ccc4O)C(OC3CC(C)(N)C(O)C(C)O3)c3ccc(c(Cl)c3)Oc3cc2cc(c3OC2OC(CO)C(O)C(O)C2OC2CC(C)(NCc3ccc(-c4ccc(OC)cc4)cc3)C(O)C(C)O2)Oc2ccc(cc2Cl)C1O (stereo not drawn) [Compound 54, 4-[4-methoxyphenyl]benzyl]
≤ .06 µg/mL | ≤ .06 µg/mL | ≤ .06 µg/mL | CNC(CC(C)C)C(=O)NC1C(=O)NC(CC(N)=O)C(=O)NC2C(=O)NC3C(=O)NC(C(=O)NC(C(=O)O)c4cc(O)cc(O)c4-c4cc3ccc4O)C(OC3CC(C)(N)C(O)C(C)O3)c3ccc(c(Cl)c3)Oc3cc2cc(c3OC2OC(CO)C(O)C(O)C2OC2CC(C)(NCc3ccc(-c4ccccc4)cc3)C(O)C(C)O2)Oc2ccc(cc2)C1O (stereo not drawn) [Compound 185, 4-phenylbenzyl]
0.5 µg/mL (≈ 0.281 µM) | 0.5 µg/mL (≈ 0.281 µM) | 1 µg/mL (≈ 0.562 µM) | CNC(CC(C)C)C(=O)NC1C(=O)NC(CC(N)=O)C(=O)NC2C(=O)NC3C(=O)NC(C(=O)NC(C(=O)O)c4cc(O)cc(O)c4-c4cc3ccc4O)C(OC3CC(C)(N)C(O)C(C)O3)c3ccc(c(Cl)c3)Oc3cc2cc(c3OC2OC(CO)C(O)C(O)C2OC2CC(C)(NCc3ccc(N4CCN(C)CC4)cc3)C(O)C(C)O2)Oc2ccc(cc2Cl)C1O (stereo not drawn) [Compound 146, 4-[4-methylpiperazino]benzyl]
8 µg/mL (≈ 4.51 µM) | ≤ 0.06 µg/mL | 2 µg/mL (≈ 1.13 µM) | CNC(CC(C)C)C(=O)NC1C(=O)NC(CC(N)=O)C(=O)NC2C(=O)NC3C(=O)NC(C(=O)NC(C(=O)O)c4cc(O)cc(O)c4-c4cc3ccc4O)C(OC3CC(C)(N)C(O)C(C)O3)c3ccc(c(Cl)c3)Oc3cc2cc(c3OC2OC(CO)C(O)C(O)C2OC2CC(C)(NCc3ccc(Nc4ccccc4)cc3)C(O)C(C)O2)Oc2ccc(cc2Cl)C1O (stereo not drawn) [Compound 160, 4-anilinobenzyl]
2 µg/mL (≈ 1.09 µM) | 1 µg/mL (≈ 0.543 µM) | 1 µg/mL (≈ 0.543 µM) | CNC(CC(C)C)C(=O)NC1C(=O)NC(CC(N)=O)C(=O)NC2C(=O)NC3C(=O)NC(C(=O)NC(C(=O)O)c4cc(O)cc(O)c4-c4cc3ccc4O)C(OC3CC(C)(N)C(O)C(C)O3)c3ccc(c(Cl)c3)Oc3cc2cc(c3OC2OC(CO)C(O)C(O)C2OC2CC(C)(NCc3cccc(Oc4ccc(C(F)(F)F)cc4)c3)C(O)C(C)O2)Oc2ccc(cc2Cl)C1O (stereo not drawn) [Compound 132, 3-[4-trifluoromethylphenoxy]benzyl]
4 µg/mL (≈ 2.22 µM) | ≤ 0.06 µg/mL | ≤ 0.06 µg/mL | CNC(CC(C)C)C(=O)NC1C(=O)NC(CC(N)=O)C(=O)NC2C(=O)NC3C(=O)NC(C(=O)NC(C(=O)O)c4cc(O)cc(O)c4-c4cc3ccc4O)C(OC3CC(C)(N)C(O)C(C)O3)c3ccc(c(Cl)c3)Oc3cc2cc(c3OC2OC(CO)C(O)C(O)C2OC2CC(C)(NCc3ccc(OCCOCCCl)cc3)C(O)C(C)O2)Oc2ccc(cc2Cl)C1O (stereo not drawn) [Compound 75]
≤ 0.06 µg/mL | ≤ 0.06 µg/mL | ≤ 0.06 µg/mL | CNC(CC(C)C)C(=O)NC1C(=O)NC(CC(N)=O)C(=O)NC2C(=O)NC3C(=O)NC(C(=O)NC(C(=O)O)c4cc(O)cc(O)c4-c4cc3ccc4O)C(OC3CC(C)(N)C(O)C(C)O3)c3ccc(c(Cl)c3)Oc3cc2cc(c3OC2OC(CO)C(O)C(O)C2OC2CC(C)(NCc3ccc(C#Cc4ccccc4)cc3)C(O)C(C)O2)Oc2ccc(cc2Cl)C1O (stereo not drawn) [Compound 79, 4-phenylethynylbenzyl]
4 µg/mL (≈ 2.24 µM) | ≤ 0.06 µg/mL | 0.5 µg/mL (≈ 0.28 µM) | CNC(CC(C)C)C(=O)NC1C(=O)NC(CC(N)=O)C(=O)NC2C(=O)NC3C(=O)NC(C(=O)NC(C(=O)O)c4cc(O)cc(O)c4-c4cc3ccc4O)C(OC3CC(C)(N)C(O)C(C)O3)c3ccc(c(Cl)c3)Oc3cc2cc(c3OC2OC(CO)C(O)C(O)C2OC2CC(C)(NCCc3cccc(Oc4ccccc4)c3)C(O)C(C)O2)Oc2ccc(cc2Cl)C1O (stereo not drawn) [Compound 62, 3-phenoxyphenethyl]
≤ 0.06 µg/mL | ≤ 0.06 µg/mL | ≤ 0.06 µg/mL | CNC(CC(C)C)C(=O)NC1C(=O)NC(CC(N)=O)C(=O)NC2C(=O)NC3C(=O)NC(C(=O)NC(C(=O)O)c4cc(O)cc(O)c4-c4cc3ccc4O)C(OC3CC(C)(N)C(O)C(C)O3)c3ccc(c(Cl)c3)Oc3cc2cc(c3OC2OC(CO)C(O)C(O)C2OC2CC(C)(NCc3ccc(-c4ccc(F)cc4)cc3)C(O)C(C)O2)Oc2ccc(cc2Cl)C1O (stereo not drawn) [Compound 211, 4-[4-flurophenyl]benzyl]
8 µg/mL (≈ 4.24 µM) | 32 µg/mL (≈ 17 µM) | 32 µg/mL (≈ 17 µM) | CCCCCCCCOc1ccc(-c2ccc(CNC3(C)CC(OC4C(Oc5c6cc7cc5Oc5ccc(cc5Cl)C(OC5CC(C)(N)C(O)C(C)O5)C5NC(=O)C(NC(=O)C7NC(=O)C(CC(N)=O)NC(=O)C(NC(=O)C(CC(C)C)NC)C(O)c7ccc(c(Cl)c7)O6)c6ccc(O)c(c6)-c6c(O)cc(O)cc6C(C(=O)O)NC5=O)OC(CO)C(O)C4O)OC(C)C3O)cc2)cc1 (stereo not drawn) [Compound 23, 4-[4-octyloxyphenyl]benzyl]
2 µg/mL (≈ 1.13 µM) | 1 µg/mL (≈ 0.565 µM) | 1 µg/mL (≈ 0.565 µM) | CNC(CC(C)C)C(=O)NC1C(=O)NC(CC(N)=O)C(=O)NC2C(=O)NC3C(=O)NC(C(=O)NC(C(=O)O)c4cc(O)cc(O)c4-c4cc3ccc4O)C(OC3CC(C)(N)C(O)C(C)O3)c3ccc(c(Cl)c3)Oc3cc2cc(c3OC2OC(CO)C(O)C(O)C2OC2CC(C)(NCC3CCC(C4CCCCC4)CC3)C(O)C(C)O2)Oc2ccc(cc2Cl)C1O (stereo not drawn) [Compound 164, 4-[cyclohexyl]cyclohexylmethyl]
8 µg/mL (≈ 4.57 µM) | ≤ 0.06 µg/mL | 0.5 µg/mL (≈ 0.286 µM) | CNC(CC(C)C)C(=O)NC1C(=O)NC(CC(N)=O)C(=O)NC2C(=O)NC3C(=O)NC(C(=O)NC(C(=O)O)c4cc(O)cc(O)c4-c4cc3ccc4O)C(OC3CC(C)(N)C(O)C(C)O3)c3ccc(c(Cl)c3)Oc3cc2cc(c3OC2OC(CO)C(O)C(O)C2OC2CC(C)(NCC3CCC(c4ccccc4)C3)C(O)C(C)O2)Oc2ccc(cc2Cl)C1O (stereo not drawn) [Compound 140, 3-phenylcyclopentylmethyl]
